Reference: patent US11608313B2, “Adamantylmethylamine derivative and use thereof as pharmaceutical” (TOHOKU UNIVERSITY, priority 2017, dated 2023)

System: OBX mice
Assay: Tail-suspension test and forced swim test in OBX mice (depression model)
Type: in vivo
Conditions: single oral dose 1 mg/kg, analyzed after 1 hour
Experimental: OBX mice were used as a depression model to determine the effect of TP-014 (chronic oral treatment for 2 weeks (1 mg/kg)) to ameliorate a depression-like symptom. OBX mice are reported to show a decline in cognitive function, but have originally been established as a depression model. Depression analysis was done by tail-suspension test and forced swim test. In the tail-suspension test, mice are hung upside-down by their tail. If the hung mice are affected by depression, they show a longer immobility time. The immobility time of normal mice is shorter since they move actively when hung. In the forced swim test, mice are forced to swim in a beaker filled with water. Depression mice neither swim nor move (just float). The time (immobility time(s)) for which mice stay still in such a way is measured.
The same model mice were orally treated with a single dose of each of the test compounds (1 mg/kg), and analyzed after 1 hour by tail-suspension test and forced swim test. The results are shown in FIGS. 22-1 (tail-suspension test) and 22-2 (forced swim test).

`CC(C)(C)C(=O)N[C@@H](c1ccccc1)[C@H]1[C@H]2C[C@@H]3C[C@](Cl)(C2)C[C@@]1(O)C3` [TP-083, N—((R)-((1S,2R,3S,5S,7S)-5-chloro-1-hydroxyadamantan-2-yl)(phenyl)methyl)pivalamide] was tested, and the “ameliorating effect on a depression-like symptom (tail-suspension test and forced swim test) compared with TP-014” value was “higher ameliorating effect on a depression-like symptom than TP-014”.
